Assay results from PMC5909127, “Optimization of a “bump-and-hole” approach to allele-selective BET bromodomain inhibition” (Chemical Science, 2018).

How the values were obtained:
[1] = target: WT BET bromodomains (BD1 and BD2 of BRD2, BRD3 and BRD4); test: competitive AlphaLISA (Bio-JQ1 displacement); format: binding, human; settings: mean and SD of all somatic bromodomains; active enantiomer concentration
[2] = tested on: L/V BET bromodomains (BD1 and BD2 of BRD2, BRD3 and BRD4); test: competitive AlphaLISA (Bio-JQ1 displacement); format: binding, human; settings: L/V minus WT
[3] = target: T1, BRD2 BD1 WT (Homo sapiens, UniProt P25440); test: competitive AlphaLISA; format: binding
[4] = target: T2, BRD2 BD1 L/V (Homo sapiens, UniProt P25440, L110V); test: competitive AlphaLISA; format: binding
[5] = target: T3, BRD2 BD2 WT (Homo sapiens, UniProt P25440); test: competitive AlphaLISA; format: binding
[6] = target: T4, BRD2 BD2 L/V (Homo sapiens, UniProt P25440, L383V); test: competitive AlphaLISA; format: binding
[7] = target: T5, BRD3 BD1 WT (Homo sapiens, UniProt Q15059); test: competitive AlphaLISA; format: binding
[8] = target: T6, BRD3 BD1 L/V (Homo sapiens, UniProt Q15059, L70V); test: competitive AlphaLISA; format: binding
[9] = target: T7, BRD3 BD2 WT (Homo sapiens, UniProt Q15059); test: competitive AlphaLISA; format: binding
[10] = target: T8, BRD3 BD2 L/V (Homo sapiens, UniProt Q15059, L345V); test: competitive AlphaLISA; format: binding
[11] = target: T9, BRD4 BD1 WT (Homo sapiens, UniProt O60885); test: competitive AlphaLISA; format: binding
[12] = target: T10, BRD4 BD1 L/V (Homo sapiens, UniProt O60885, L94V); test: competitive AlphaLISA; format: binding
[13] = target: T11, BRD4 BD2 WT (Homo sapiens, UniProt O60885); test: competitive AlphaLISA; format: binding
[14] = target: T12, BRD4 BD2 L/V (Homo sapiens, UniProt O60885, L387V); test: competitive AlphaLISA; format: binding
[15] = target: BRDT BD1 WT (Homo sapiens, UniProt Q58F21); test: competitive AlphaLISA; format: binding
[16] = target: BRDT BD1 L/V (Homo sapiens, UniProt Q58F21, L63V); test: competitive AlphaLISA; format: binding
[17] = target: T1, BRD2 BD1 WT; test: ITC; format: binding
[18] = target: T2, BRD2 BD1 L/V; test: ITC; format: binding
[19] = target: T3, BRD2 BD2 WT; test: ITC; format: binding
[20] = target: T4, BRD2 BD2 L/V; test: ITC; format: binding
[21] = target: T5, BRD3 BD1 WT; test: ITC; format: binding
[22] = target: T6, BRD3 BD1 L/V; test: ITC; format: binding
[23] = target: T7, BRD3 BD2 WT; test: ITC; format: binding
[24] = target: T8, BRD3 BD2 L/V; test: ITC; format: binding
[25] = target: T9, BRD4 BD1 WT; test: ITC; format: binding
[26] = target: T10, BRD4 BD1 L/V; test: ITC; format: binding; settings: for Kd: Kd BRD4 BD1 L/V
[27] = target: T11, BRD4 BD2 WT; test: ITC; format: binding
[28] = target: T12, BRD4 BD2 L/V; test: ITC; format: binding
[29] = target: WT somatic BET bromodomains; test: ITC; settings: mean and SD of all somatic bromodomains
[30] = tested on: L/V somatic BET bromodomains; test: ITC; settings: L/V minus WT
[31] = in vitro; settings: PAMPA, pH 7.4
[32] = Plasma Half-life; settings: BALB/c, mouse, pH 7.4
[33] = Intrinsic Clearance; settings: mouse liver microsomes
[34] = target: BRDT BD2 WT (Homo sapiens, UniProt Q58F21); test: competitive AlphaLISA; format: binding
[35] = AlphaLISA pIC50 Value BRD4 BD1 WT
[36] = AlphaLISA pIC50 Value BRD4 BD1 L/V

T1 sequence (P25440 71-176): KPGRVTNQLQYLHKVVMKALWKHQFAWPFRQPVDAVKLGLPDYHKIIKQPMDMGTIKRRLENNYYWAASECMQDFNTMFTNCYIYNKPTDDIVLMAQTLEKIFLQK
T7 sequence (Q15059 306-416): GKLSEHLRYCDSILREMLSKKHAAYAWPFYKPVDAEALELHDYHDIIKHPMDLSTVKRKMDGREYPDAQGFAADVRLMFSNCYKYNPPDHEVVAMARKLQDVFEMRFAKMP
T3 sequence (P25440 344-455): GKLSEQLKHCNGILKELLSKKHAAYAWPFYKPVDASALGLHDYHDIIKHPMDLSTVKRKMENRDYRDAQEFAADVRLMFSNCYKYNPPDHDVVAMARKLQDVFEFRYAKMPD
T5 sequence (Q15059 24-144): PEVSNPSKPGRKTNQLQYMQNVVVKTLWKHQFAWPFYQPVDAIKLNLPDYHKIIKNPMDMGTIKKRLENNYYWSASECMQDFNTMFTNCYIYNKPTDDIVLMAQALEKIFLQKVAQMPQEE
T2 sequence (P25440 71-176 L110V limits assumed): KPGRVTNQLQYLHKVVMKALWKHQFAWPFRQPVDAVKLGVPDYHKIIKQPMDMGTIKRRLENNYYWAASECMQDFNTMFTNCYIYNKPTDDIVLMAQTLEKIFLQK
T4 sequence (P25440 344-455 L383V): as the sequence (P25440 344-455) above, with L40V counted along it
T8 sequence (Q15059 306-416 L345V limits assumed): as the sequence (Q15059 306-416) above, with L40V counted along it
T6 sequence (Q15059 24-144 L70V limits assumed): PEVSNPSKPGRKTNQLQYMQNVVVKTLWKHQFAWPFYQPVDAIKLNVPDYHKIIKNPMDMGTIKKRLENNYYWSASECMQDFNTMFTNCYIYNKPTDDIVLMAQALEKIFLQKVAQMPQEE

Question: Which “AlphaLISA pIC50 ± SD WT” value [1] does the source give for `C=CC[C@@H](C(=O)OC)[C@@H]1N=C(c2ccc(Cl)cc2)c2cc(OC)ccc2-n2c(C)nnc21` (racemic) [Compound 5, (+-)methyl (R)-2-((S)-6-(4-chlorophenyl)-8-methoxy-1-methyl-4H-benzo[f][1,2,4]triazolo[4,3-a][1,4]diazepin-4-yl)pent-4-enoate] here?
Answer: 5.1 ± 0.1

Question: What about the “AlphaLISA pIC50 ± SD Δ” value [2] of the same compound?
Answer: 1.5 ± 0.3

Question: And the IC50 [3]?
Answer: 10 µM

Question: And the IC50 [4]?
Answer: 1 µM

Question: And the IC50 [5]?
Answer: 10 µM

Question: What about the IC50 [6] of the same compound?
Answer: 0.158 µM

Question: What about the IC50 [7] of the same compound?
Answer: 3.98 µM

Question: What about the IC50 [8] of the same compound?
Answer: 0.126 µM

Question: What about the IC50 [9] of the same compound?
Answer: 10 µM

Question: What about the IC50 [10] of the same compound?
Answer: 0.126 µM

Question: And the IC50 [11, 35]?
Answer: 7.94 µM

Question: What about the IC50 [12, 36] of the same compound?
Answer: 0.316 µM

Question: What about the IC50 [13] of the same compound?
Answer: 10 µM

Question: What about the IC50 [14] of the same compound?
Answer: 0.251 µM

Question: And the IC50 [15]?
Answer: 20 µM

Question: And the IC50 [16]?
Answer: 2 µM

Question: What about the Kd [17] of the same compound?
Answer: 8.4 µM

Question: And the “ΔH BRD2 BD1 WT” value ([17]; ITC)?
Answer: -4.0 kcal/mol

Question: What about the “N BRD2 BD1 WT” value ([17]; ITC stoichiometry) of the same compound?
Answer: 1.0

Question: And the Kd [18]?
Answer: 0.47 µM

Question: What about the “ΔH BRD2 BD1 L/V” value ([18]; ITC) of the same compound?
Answer: -10.3 kcal/mol

Question: And the Kd [19]?
Answer: 5.8 µM

Question: And the “ΔH BRD2 BD2 WT” value ([19]; ITC)?
Answer: -2.3 kcal/mol

Question: And the “N BRD2 BD2 WT” value ([19]; ITC stoichiometry)?
Answer: 0.75

Question: What about the Kd [20] of the same compound?
Answer: 0.24 µM

Question: What about the “ΔH BRD2 BD2 L/V” value ([20]; ITC) of the same compound?
Answer: -5.9 kcal/mol

Question: What about the Kd [21] of the same compound?
Answer: 1.5 µM

Question: And the “ΔH BRD3 BD1 WT” value ([21]; ITC)?
Answer: -2.3 kcal/mol

Question: What about the “N BRD3 BD1 WT” value ([21]; ITC stoichiometry) of the same compound?
Answer: 0.85

Question: And the Kd [22]?
Answer: 0.27 µM

Question: And the “ΔH BRD3 BD1 L/V” value ([22]; ITC)?
Answer: -11.3 kcal/mol

Question: And the Kd [23]?
Answer: 23 µM

Question: And the “ΔH BRD3 BD2 WT” value ([23]; ITC)?
Answer: -3.7 kcal/mol

Question: What about the Kd [24] of the same compound?
Answer: 0.31 µM

Question: What about the “ΔH BRD3 BD2 L/V” value ([24]; ITC) of the same compound?
Answer: -8.5 kcal/mol

Question: What about the Kd [25] of the same compound?
Answer: 9.7 µM

Question: What about the “ΔH BRD4 BD1 WT” value ([25]; ITC) of the same compound?
Answer: -3.5 kcal/mol

Question: And the “N BRD4 BD1 WT” value ([25]; ITC stoichiometry)?
Answer: 1.10

Question: And the “ΔH BRD4 BD1 L/V” value ([26]; ITC)?
Answer: -7.4 kcal/mol

Question: And the Kd ([26]; ITC, 30°C)?
Answer: 0.18 µM

Question: And the “ΔH BRD4 BD2 WT” value ([27]; ITC)?
Answer: -2.2 kcal/mol

Question: And the “N BRD4 BD2 WT” value ([27]; ITC stoichiometry)?
Answer: 0.98

Question: And the Kd [28]?
Answer: 0.17 µM

Question: What about the “ΔH BRD4 BD2 L/V” value ([28]; ITC) of the same compound?
Answer: -6.4 kcal/mol

Question: And the “ITC pKd ± SD WT” value [29]?
Answer: 5.1 ± 0.4

Question: And the “ITC pKd ± SD Δ” value [30]?
Answer: 1.5 ± 0.5

Question: What about the Papp [31] of the same compound?
Answer: 12.7 ×10⁻⁶ cm/s

Question: What about the half-life at 50 µM [32] of the same compound?
Answer: > 3 h

Question: What about the CL int [33] of the same compound?
Answer: 6.7 ml min^–1 g^–1

Question: Which results are given for `COC(=O)[C@H](C)[C@@H]1N=C(c2ccc(Cl)cc2)c2ccc(OC)cc2-n2c(C)nnc21` (racemic) [Compound 7]?
Answer: AlphaLISA pIC50 ± SD WT [1]: 5.4 ± 0.2; AlphaLISA pIC50 ± SD Δ [2]: 1.4 ± 0.2; IC50 [3]: 3.16 µM; IC50 [4]: 0.2 µM; IC50 [5]: 7.94 µM; IC50 [6]: 0.316 µM; IC50 [7]: 1.58 µM; IC50 [8]: 0.1 µM; IC50 [9]: 5.01 µM; IC50 [10]: 0.1 µM; IC50 [11, 35]: 3.16 µM; IC50 ([11]; pIC50 BRD4 BD1 WT, separated enantiomers test, total compound concentration): 12.6 µM; IC50 [12, 36]: 0.2 µM; ΔpIC50 BRD4 BD1 ([12]; L/V minus WT, total compound concentration): 1.4; IC50 ([12]; pIC50 BRD4 BD1 L/V, separated enantiomers test, total compound concentration): 0.631 µM; IC50 [13]: 6.31 µM; IC50 [14]: 0.2 µM; IC50 [15]: 5.01 µM; IC50 [16]: 0.251 µM; IC50 [34]: 7.94 µM; Kd [17]: 32 µM; Kd [18]: 0.31 µM; Kd [19]: > 60 µM; Kd [20]: 0.33 µM; Kd [21]: 12 µM; Kd [22]: 0.14 µM; Kd [24]: 0.23 µM; Kd [25]: 28 µM; ΔH BRD4 BD1 L/V ([26]; ITC, total compound concentration): -4.2 ± 0.0 kcal/mol; Kd ([26]; ITC of separated enantiomers and racemates, total compound concentration): 0.5 ± 0.05 µM; Kd ([26]; ITC, 30°C): 0.14 µM; Kd [27]: 33 µM; Kd [28]: 0.98 µM; ITC pKd ± SD Δ [30]: 2.0 ± 0.4; Papp [31]: 15.8 ×10⁻⁶ cm/s; half-life at 50 µM [32]: > 3 h; CL int [33]: <0.5 ml min^–1 g^–1
